Measured values from ChEMBL document CHEMBL4376876 (J Med Chem, 2020).
Converted amounts (≈) assume the structure as drawn.

Experiments:
[1] = system: Mycobacterium tuberculosis; test: Antibacterial activity against Mycobacterium tuberculosis H37Rv after 7 days by resazurin dye-based assay; type: functional; details: 168 h
[2] = system: Mycobacterium tuberculosis; test: Antimycobacterial activity against Mycobacterium tuberculosis H37Rv transfected with pMV261 empty vector after 7 days by resazurin dye-based assay; type: functional; details: 168 h
[3] = system: Mycobacterium tuberculosis; test: Antimycobacterial activity against Mycobacterium tuberculosis H37Rv over expressing InhA after 7 days by resazurin dye-based assay; type: functional; details: 168 h
[4] = Stability in Middlebrook 7H9 medium at 10 ug/ml after 7 days relative to control; type: physicochemical; details: read-out: Stability

With `CC(C)[C@H]1OC(=O)[C@H](C)[C@H](O)[C@H](Cc2cccnc2)NC(=O)[C@@H](NC(=O)c2ncccc2O)[C@@H](C)OC1=O` as the compound, how does the MIC [1] read?
Its MIC is 3.2 µM (≈ 1.69 µg/mL).

What about the MIC [2] of the same compound?
The MIC was 3.1 µM (≈ 1.64 µg/mL).

What about the MIC [3] of the same compound?
Its MIC is 24.2 µM (≈ 12.8 µg/mL).

Which MIC [1] does the source give for `CC(C)[C@@H]1OC(=O)[C@H](C)[C@H](O)[C@H](Cc2cccnc2)NC(=O)[C@@H](NC(=O)c2ncccc2O)[C@@H](C)OC1=O` here?
Its MIC is 26 µM (≈ 13.7 µg/mL).

For `C[C@H]1OC(=O)[C@@H]([C@@H](C)c2ccccc2)OC(=O)[C@H](C)[C@H](O)[C@H](Cc2cccnc2)NC(=O)[C@H]1NC(=O)c1ncccc1O`, which MIC [1] is on record?
The MIC was 2.6 µM (≈ 1.54 µg/mL).

With `CC[C@@H](C)[C@H]1NC(=O)[C@H](C)[C@H](O)[C@H](Cc2cccnc2)NC(=O)[C@@H](NC(=O)c2ncccc2O)[C@@H](C)OC1=O` as the compound, how does the MIC [1] read?
The MIC was 185 µM (≈ 100 µg/mL).

Which results are given for `CC[C@H]1OC(=O)[C@H](C)[C@H](O)[C@H](Cc2cccnc2)NC(=O)[C@@H](NC(=O)c2ncccc2O)[C@@H](C)OC1=O`?
MIC [1]: 4.9 µM (≈ 2.52 µg/mL); MIC [2]: 4.9 µM (≈ 2.52 µg/mL); MIC [3]: > 19.1 µM

Which MIC [1] does the source give for `C[C@H](c1ccccc1)[C@H]1OC(=O)[C@H](C)[C@H](O)[C@H](Cc2cccnc2)NC(=O)[C@@H](NC(=O)c2ncccc2O)[C@@H](C)OC1=O` here?
Its MIC is 2.6 µM (≈ 1.54 µg/mL).

For `C[C@H]1OC(=O)[C@H](C)[C@H](O)[C@H](Cc2cccnc2)NC(=O)[C@@H](NC(=O)c2ncccc2O)[C@@H](C)OC1=O`, which MIC [1] is on record?
The MIC was 49.9 µM (≈ 25 µg/mL).

For `CC[C@@H](C)[C@H]1OC(=O)[C@H](C)[C@H](O)[C@H](Cc2cccnc2)NC(=O)[C@@H](NC(=O)c2ncccc2O)[C@@H](C)OC1=O`, which MIC [1] is on record?
The MIC was 1.5 µM (≈ 0.814 µg/mL).

Which MIC [1] does the source give for `C[C@@H]1C(=O)N[C@H](C2CCCCC2)C(=O)O[C@H](C)[C@H](NC(=O)c2ncccc2O)C(=O)N[C@@H](Cc2cccnc2)[C@@H]1O` here?
Its MIC is 136 µM (≈ 77.1 µg/mL).

With `C[C@H]1OC(=O)[C@@H](CO)OC(=O)[C@H](C)[C@H](O)[C@H](Cc2cccnc2)NC(=O)[C@H]1NC(=O)c1ncccc1O` as the compound, how does the MIC [1] read?
The MIC was 96.8 µM (≈ 50 µg/mL).

With `C[C@H]1OC(=O)[C@@H](Cc2ccccc2)OC(=O)[C@H](C)[C@H](O)[C@H](Cc2cccnc2)NC(=O)[C@H]1NC(=O)c1ncccc1O` as the compound, how does the MIC [1] read?
Its MIC is 4.3 µM (≈ 2.48 µg/mL).

And the MIC [2]?
The MIC was 4.3 µM (≈ 2.48 µg/mL).

And the MIC [3]?
The MIC was > 17.3 µM.

With `CC[C@H](C)[C@H]1OC(=O)[C@H](C)[C@H](O)[C@H](Cc2cccnc2)NC(=O)[C@@H](NC(=O)c2ncccc2O)[C@@H](C)OC1=O` as the compound, how does the MIC [1] read?
The MIC was 2.9 µM (≈ 1.57 µg/mL).

What about the MIC [2] of the same compound?
Its MIC is 2.9 µM (≈ 1.57 µg/mL).

And the MIC [3]?
The MIC was 2.9 µM (≈ 1.57 µg/mL).

For `CC(C)[C@H]1NC(=O)[C@@H](C)[C@@H](O)[C@H](Cc2cccnc2)NC(=O)[C@@H](NC(=O)c2ncccc2O)[C@@H](C)OC1=O`, which MIC [1] is on record?
Its MIC is 94.6 µM (≈ 49.9 µg/mL).

Which results are given for `NNC(=O)c1ccncc1` [ISONIAZID]?
MIC [2]: 1.2 µM (≈ 0.165 µg/mL); MIC [3]: 37.3 µM (≈ 5.12 µg/mL)

For `CC/C(C)=C1\OC(=O)[C@H](C)[C@H](O)[C@H](Cc2cccnc2)NC(=O)[C@@H](NC(=O)c2ncccc2O)[C@@H](C)OC1=O` [PYRIDOMYCIN], which MIC [1] is on record?
Its MIC is 0.55 to 3.05 µM (≈ 0.297 to 1.65 µg/mL).

And the remaining at 168 h, 10 ug/ml [4]?
The remaining at 168 h, 10 ug/ml was > 50%.

What about the MIC [2] of the same compound?
The MIC was 0.74 µM (≈ 0.4 µg/mL).

What about the MIC [3] of the same compound?
Its MIC is 11.6 µM (≈ 6.25 µg/mL).
